The values that follow come from patent US20200131249A1, “NOVEL PROTEINS AND USE THEREOF” (EVOLVERITAS KFT., priority 2017, published 2020).

Where no end group is shown, it is not given here.

One experiment concerns lectin pathway. The experiment can be described thus: Lectin pathway activation tests in rat serum, all three assays (C3, C4, C5b-9 deposition). The experiment is classed as biochemical. The note with it: result in words. Here is the method:
ELISA-based complement lectin pathway activation tests were performed on mannan coated plates using diluted individual (not pooled) rat serum. In these tests, inhibitory efficiencies of the protein of SEQ ID NO: 14 and SGMI-2 were compared. Three different assays were conducted that detect the deposition of C3, C4 or the terminal complement antigen C5b-9, respectively.
96-well Greiner high binding ELISA plates (cat. no. 655061) were coated with 100 μl/well 10 μg/ml mannan dissolved in coating buffer (50 mM sodium-carbonate pH 9.6) overnight at 4° C. Control wells contained coating buffer alone. Wells were blocked for at least 1 h at 37° C. with 200 μl/well
10 mg/ml bovine serum albumin (BSA) dissolved in 50 mM Tris pH 7.4, 150 mM NaCl, 0.1% Tween-20 buffer. Serial dilutions of the inhibitors were made in 10 mM HEPES pH 7.4, 150 mM NaCl, 5 mM CaCl2, 5 mM MgCl2, 0.1% Tween-20 buffer (serum dilution buffer). Rat serum was thawed on ice and diluted 35-fold in serum dilution buffer. […]
50 mM Tris pH 7.4, 150 mM NaCl, 5 mM CaCl2, 0.1% Tween-20 buffer (washing buffer) and 100 μl of the serum-inhibitor samples were transferred onto the plate. […] The 490 nm absorbance values were recorded using a PerkinElmer EnSpire multimode plate reader. Four parallels were measured for each data point. […]

In a further experiment the target is T1, human MASP-3 (Homo sapiens, UniProt P48740).
T1 construct: catalytic enzyme fragments containing the three C-terminal domains: CCP1-CCP2-SP
T1 sequence (P48740 450-728 isoform P48740-2 limits assumed): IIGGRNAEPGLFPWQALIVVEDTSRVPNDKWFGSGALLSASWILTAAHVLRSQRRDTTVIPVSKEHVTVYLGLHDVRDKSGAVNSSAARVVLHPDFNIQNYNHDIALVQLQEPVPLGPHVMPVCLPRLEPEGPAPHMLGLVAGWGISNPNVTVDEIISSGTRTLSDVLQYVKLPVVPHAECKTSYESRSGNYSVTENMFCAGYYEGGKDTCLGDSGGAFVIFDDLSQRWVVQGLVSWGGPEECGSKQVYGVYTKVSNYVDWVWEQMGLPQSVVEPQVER
The note with it: Data from Héja et al. 2012a; cited from earlier work.

The test system of a further experiment is alternative pathway. Put plainly: C3 deposition ELISA with rat serum on LPS coated plates. The experiment is classed as biochemical. The note with it: final concentrations as high as 50 μM; 6-fold diluted rat serum. On the procedure:
ELISA-based complement classical and alternative pathway activation tests were performed on IgG or lipopolysaccharide (LPS) coated plates, respectively, using diluted individual (not pooled) rat serum. In these tests, inhibitory efficiencies of the protein of SEQ ID NO: 14 and SGMI-2 were compared and C3 deposition was used for quantification of the complement activation.
The buffers, incubation times, incubation temperatures and antibodies were the same as described in point 4.5.1.
The final dilution of the rat serum was 6-fold. The dilution of the primary antibody was 3000-fold.
(In an ELISA, binding on a coated surface is turned into a signal by an enzyme label.)

For the next experiment, the target named is MASP-2 (Homo sapiens, UniProt O00187). Set-up: catalytic enzyme fragments containing the three C-terminal domains: CCP1-CCP2-SP; made in house; inclusion bodies, renatured. The note with it: Data from Héja et al. 2012b; cited from earlier work.
MASP-2, sequence (O00187 445-686 limits assumed): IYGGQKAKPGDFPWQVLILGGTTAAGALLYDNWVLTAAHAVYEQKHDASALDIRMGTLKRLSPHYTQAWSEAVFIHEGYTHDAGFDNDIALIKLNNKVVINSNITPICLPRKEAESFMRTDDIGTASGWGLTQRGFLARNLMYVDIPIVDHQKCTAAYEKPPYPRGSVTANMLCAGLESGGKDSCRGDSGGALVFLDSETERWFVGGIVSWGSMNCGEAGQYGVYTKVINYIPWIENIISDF
MASP-2, sequence (O00187 287-444 partner limits assumed): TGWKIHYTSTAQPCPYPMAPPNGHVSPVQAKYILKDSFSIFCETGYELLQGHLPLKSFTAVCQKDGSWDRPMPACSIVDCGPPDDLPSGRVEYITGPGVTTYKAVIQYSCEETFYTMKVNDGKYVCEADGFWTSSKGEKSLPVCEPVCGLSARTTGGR
The test system of a further experiment is intrinsic pathway. The experiment can be described thus: Activated partial thromboplastin time (APTT) in human plasma. Here is the method:
Blood coagulation measurements using blood plasma taken from healthy human individuals were also performed. From the blood obtained through venipuncture and treated with sodium citrate (3.8% wt/vol) the plasma was isolated by centrifugation (2,000 g, 15 minutes, Jouan CR412 centrifuge).
The effect of the protein variants of the present invention on the blood coagulation process was tested in three standard assays, the thrombin time, testing any direct effects on thrombin; prothrombin time, testing any effects on the extrinsic pathway; and the activated partial thromboplastin time, testing any effects on the intrinsic pathway. Blood was collected from a healthy individual by vein puncture after informed consent. The blood was treated with sodium-citrate (3.8% w/v) and centrifuged. All three assays were performed on the automated instrument Sysmex CA-1500 (Sysmex) with Innovin reagent (Dale Behring, Marburg, Germany).
The inhibitors were applied in a fivefold serial dilution with the highest final concentration being 36 μM. This value is 3-4 orders of magnitudes higher than the KI values of the three protein variants of the present invention on human MASP-2. Even at the highest concentration the protein variants of the present invention have only little effect in the APTT test and no effect in the PT and TT tests.

With “SGMI-2 (GSGEVTCEPGTTFKDKCNTCRCGSDGKSAVCTKLWCNQ; Synthetic protein of insect origin) [reference compound]”, the “inhibition of the lectin pathway in rat serum” value with lectin pathway was “completely inhibit”. Moreover, the Ki (in general, the equilibrium dissociation constant of an inhibitor or competing ligand from its target) with human MASP-3 was approximately 5 µM; with MASP-2 it was 0.006 µM. Also, the “inhibition of the alternative pathway in rat serum” value in the experiment on alternative pathway is “neither the protein of SEQ ID NO: 14 nor SGMI-2 were able to inhibit”.

For the substance “SEQ ID NO: 14: TFPI-D2 variant protein with inhibitor loop PCRAVKR (SEQ ID NO: 4) (KPDFCFLEEDPGPCRAVKRRYFYNNQTKQCERFKYGGCLGNMNNFETLEECKNICEDG; ends and bridges not checked; cysteine pairing not given here)”, in the experiment with lectin pathway, the “inhibition of the lectin pathway in rat serum” value is “completely inhibit”. Further, in the experiment with alternative pathway, the “inhibition of the alternative pathway in rat serum” value was “neither the protein of SEQ ID NO: 14 nor SGMI-2 were able to inhibit”. Further, the APTT is recorded as 36.1 s with intrinsic pathway (inhibitor 0.1 μM); 36.8 s in the experiment on intrinsic pathway (inhibitor 0.3 μM); 37.9 s in the experiment on intrinsic pathway (inhibitor 1.4 μM); 40.2 s with intrinsic pathway (inhibitor 7.2 μM); 46.4 s with intrinsic pathway (inhibitor 36.0 μM).
